{
  "source": "patent US6689773B2",
  "about": "“Uracil substituted phenyl sulfamoyl carboxamides” (BASF Aktiengesellschaft, priority 2000, dated 2004)",
  "type_in_all_cases": "in vivo",
  "key": {"[1]": {"system": "ABUTH, Velvetleaf, Abutilon theophrasti, Medic.", "test": "Postemergence herbicidal evaluation (Example 147)", "settings": "rating scale 0-9, two to three weeks after treatment", "procedure,_shortened": "(§1)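 Plants at about two weeks from sowing received a foliar spray of test compound equivalent to roughly 0.016 to 0.032 kg per hectare. The carrier was 80/20 acetone/water containing 1.0% methylated seed oil. Injury was scored on a 0-9 visual scale two to three weeks later.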"}, "[2]": {"system": "ALOMY, Blackgrass, Alopecurus myosuroides", "test": "Postemergence herbicidal evaluation (Example 147)", "settings": "rating scale 0-9, two to three weeks after treatment", "procedure,_shortened": "as §1"}, "[3]": {"system": "AMBEL, Ragweed, Common, Ambrosia artemiisifolia, L.", "test": "Postemergence herbicidal evaluation (Example 147)", "settings": "rating scale 0-9, two to three weeks after treatment", "procedure,_shortened": "as §1"}, "[4]": {"system": "CHEAL, Lambsquarters, Chenopodium album, L. Common", "test": "Postemergence herbicidal evaluation (Example 147)", "settings": "rating scale 0-9, two to three weeks after treatment", "procedure,_shortened": "as §1"}, "[5]": {"system": "DIGSA, Crabgrass, (Hairy) L, Digitaria sanguinalis, (L)Scop", "test": "Postemergence herbicidal evaluation (Example 147)", "settings": "rating scale 0-9, two to three weeks after treatment", "procedure,_shortened": "as §1"}, "[6]": {"system": "ECHCG, Barnyardgrass, Echinochloa crusgalli, (L.)Beau", "test": "Postemergence herbicidal evaluation (Example 147)", "settings": "rating scale 0-9, two to three weeks after treatment", "procedure,_shortened": "as §1"}, "[7]": {"system": "GLXMA, Soybean, Glycine max, (L.) Merr.", "test": "Postemergence herbicidal evaluation (Example 147)", "settings": "rating scale 0-9, two to three weeks after treatment", "procedure,_shortened": "as §1"}, "[8]": {"system": "IPOHE, Morningglory, Ivyleaf, Ipomoea hederacea, (L)Jacq.", "test": "Postemergence herbicidal evaluation (Example 147)", "settings": "rating scale 0-9, two to three weeks after treatment", "procedure,_shortened": "as §1"}, "[9]": {"system": "SETVI, Green foxtail, Setaria viridis, (L.)Beau", "test": "Postemergence herbicidal evaluation (Example 147)", "settings": "rating scale 0-9, two to three weeks after treatment", "procedure,_shortened": "as §1"}, "[10]": {"system": "TRZAW, Winter wheat, Tritium Aestivum, L. (Winter)", "test": "Postemergence herbicidal evaluation (Example 147)", "settings": "rating scale 0-9, two to three weeks after treatment", "procedure,_shortened": "as §1"}, "[11]": {"system": "XANST, Cocklebur, Xanthium strumariam", "test": "Postemergence herbicidal evaluation (Example 147)", "settings": "rating scale 0-9, two to three weeks after treatment", "procedure,_shortened": "as §1"}, "[12]": {"system": "ZEAMX, Field corn, Zea mays L.", "test": "Postemergence herbicidal evaluation (Example 147)", "settings": "rating scale 0-9, two to three weeks after treatment", "procedure,_shortened": "as §1"}, "[13]": {"system": "ABUTH, Velvetleaf, Abutilon theophrasti, Medic.", "test": "Preemergence herbicidal evaluation (Example 148)", "settings": "rating scale 0-9, two to four weeks after treatment", "procedure,_shortened": "(§2)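 Visual rating vs. control (stand, vigor, malformation, size, chlorosis, overall appearance) at 2–4 wk post-treatment. Soil surface sprayed right after sowing; ~0.125–0.250 kg/ha in aqueous acetone. Repeat tests averaged.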"}, "[14]": {"system": "ALOMY, Blackgrass, Alopecurus myosuroides", "test": "Preemergence herbicidal evaluation (Example 148)", "settings": "rating scale 0-9, two to four weeks after treatment", "procedure,_shortened": "as §2"}, "[15]": {"system": "AMBEL, Ragweed, Common, Ambrosia artemiisifolia, L.", "test": "Preemergence herbicidal evaluation (Example 148)", "settings": "rating scale 0-9, two to four weeks after treatment", "procedure,_shortened": "as §2"}, "[16]": {"system": "CHEAL, Lambsquarters, Chenopodium album, L. Common", "test": "Preemergence herbicidal evaluation (Example 148)", "settings": "rating scale 0-9, two to four weeks after treatment", "procedure,_shortened": "as §2"}, "[17]": {"system": "DIGSA, Crabgrass, (Hairy) L, Digitaria sanguinalis, (L)Scop", "test": "Preemergence herbicidal evaluation (Example 148)", "settings": "rating scale 0-9, two to four weeks after treatment", "procedure,_shortened": "as §2"}, "[18]": {"system": "ECHCG, Barnyardgrass, Echinochloa crusgalli, (L.)Beau", "test": "Preemergence herbicidal evaluation (Example 148)", "settings": "rating scale 0-9, two to four weeks after treatment", "procedure,_shortened": "as §2"}, "[19]": {"system": "GLXMA, Soybean, Glycine max, (L.) Merr.", "test": "Preemergence herbicidal evaluation (Example 148)", "settings": "rating scale 0-9, two to four weeks after treatment", "procedure,_shortened": "as §2"}, "[20]": {"system": "IPOHE, Morningglory, Ivyleaf, Ipomoea hederacea, (L)Jacq.", "test": "Preemergence herbicidal evaluation (Example 148)", "settings": "rating scale 0-9, two to four weeks after treatment", "procedure,_shortened": "as §2"}, "[21]": {"system": "SETVI, Green foxtail, Setaria viridis, (L.)Beau", "test": "Preemergence herbicidal evaluation (Example 148)", "settings": "rating scale 0-9, two to four weeks after treatment", "procedure,_shortened": "as §2"}, "[22]": {"system": "TRZAW, Winter wheat, Tritium Aestivum, L. (Winter)", "test": "Preemergence herbicidal evaluation (Example 148)", "settings": "rating scale 0-9, two to four weeks after treatment", "procedure,_shortened": "as §2"}, "[23]": {"system": "XANST, Cocklebur, Xanthium strumariam", "test": "Preemergence herbicidal evaluation (Example 148)", "settings": "rating scale 0-9, two to four weeks after treatment", "procedure,_shortened": "as §2"}, "[24]": {"system": "ZEAMX, Field corn, Zea mays L.", "test": "Preemergence herbicidal evaluation (Example 148)", "settings": "rating scale 0-9, two to four weeks after treatment", "procedure,_shortened": "as §2"}},
  "data": [
    {"compound": "Cn1c(C(F)(F)F)cc(=O)n(-c2cc(C(=O)NS(=O)(=O)NC3CCCC3)c(Cl)cc2F)c1=O", "note": "[Example 78]", "values": [
      {"measurement": "Postemergence herbicidal rating ABUTH", "setting": "[1]; rate 0.016 kg/ha", "result": 9.0},
      {"measurement": "Postemergence herbicidal rating ABUTH", "setting": "[1]; rate 0.032 kg/ha", "result": 9.0},
      {"measurement": "Postemergence herbicidal rating ALMOY", "setting": "[2]; rate 0.016 kg/ha", "result": 2.0},
      {"measurement": "Postemergence herbicidal rating ALMOY", "setting": "[2]; rate 0.032 kg/ha", "result": 2.0},
      {"measurement": "Postemergence herbicidal rating AMBEL", "setting": "[3]; rate 0.016 kg/ha", "result": 9.0},
      {"measurement": "Postemergence herbicidal rating AMBEL", "setting": "[3]; rate 0.032 kg/ha", "result": 9.0},
      {"measurement": "Postemergence herbicidal rating CHEAL", "setting": "[4]; rate 0.016 kg/ha", "result": 7.0},
      {"measurement": "Postemergence herbicidal rating CHEAL", "setting": "[4]; rate 0.032 kg/ha", "result": 9.0},
      {"measurement": "Postemergence herbicidal rating DIGSA", "setting": "[5]; rate 0.016 kg/ha", "result": 5.0},
      {"measurement": "Postemergence herbicidal rating DIGSA", "setting": "[5]; rate 0.032 kg/ha", "result": 6.0},
      {"measurement": "Postemergence herbicidal rating ECHCG", "setting": "[6]; rate 0.016 kg/ha", "result": 8.0},
      {"measurement": "Postemergence herbicidal rating ECHCG", "setting": "[6]; rate 0.032 kg/ha", "result": 9.0},
      {"measurement": "Postemergence herbicidal rating GLXMA", "setting": "[7]; rate 0.016 kg/ha", "result": 7.0},
      {"measurement": "Postemergence herbicidal rating GLXMA", "setting": "[7]; rate 0.032 kg/ha", "result": 8.0},
      {"measurement": "Postemergence herbicidal rating IPOHE", "setting": "[8]; rate 0.016 kg/ha", "result": 9.0},
      {"measurement": "Postemergence herbicidal rating IPOHE", "setting": "[8]; rate 0.032 kg/ha", "result": 9.0},
      {"measurement": "Postemergence herbicidal rating SETVI", "setting": "[9]; rate 0.016 kg/ha", "result": 8.0},
      {"measurement": "Postemergence herbicidal rating SETVI", "setting": "[9]; rate 0.032 kg/ha", "result": 9.0},
      {"measurement": "Postemergence herbicidal rating TRZAW", "setting": "[10]; rate 0.016 kg/ha", "result": 5.5},
      {"measurement": "Postemergence herbicidal rating TRZAW", "setting": "[10]; rate 0.032 kg/ha", "result": 6.5},
      {"measurement": "Postemergence herbicidal rating XANST", "setting": "[11]; rate 0.016 kg/ha", "result": 9.0},
      {"measurement": "Postemergence herbicidal rating XANST", "setting": "[11]; rate 0.032 kg/ha", "result": 9.0},
      {"measurement": "Postemergence herbicidal rating ZEAMX", "setting": "[12]; rate 0.016 kg/ha", "result": 6.5},
      {"measurement": "Postemergence herbicidal rating ZEAMX", "setting": "[12]; rate 0.032 kg/ha", "result": 7.0},
      {"measurement": "Preemergence herbicidal rating ABUTH", "setting": "[13]; rate 0.125 kg/ha", "result": 9.0},
      {"measurement": "Preemergence herbicidal rating ABUTH", "setting": "[13]; rate 0.25 kg/ha", "result": 9.0},
      {"measurement": "Preemergence herbicidal rating ALMOY", "setting": "[14]; rate 0.125 kg/ha", "result": 1.0},
      {"measurement": "Preemergence herbicidal rating ALMOY", "setting": "[14]; rate 0.25 kg/ha", "result": 2.0},
      {"measurement": "Preemergence herbicidal rating AMBEL", "setting": "[15]; rate 0.125 kg/ha", "result": 9.0},
      {"measurement": "Preemergence herbicidal rating AMBEL", "setting": "[15]; rate 0.25 kg/ha", "result": 9.0},
      {"measurement": "Preemergence herbicidal rating CHEAL", "setting": "[16]; rate 0.125 kg/ha", "result": 9.0},
      {"measurement": "Preemergence herbicidal rating CHEAL", "setting": "[16]; rate 0.25 kg/ha", "result": 9.0},
      {"measurement": "Preemergence herbicidal rating DIGSA", "setting": "[17]; rate 0.125 kg/ha", "result": 4.0},
      {"measurement": "Preemergence herbicidal rating DIGSA", "setting": "[17]; rate 0.25 kg/ha", "result": 8.0},
      {"measurement": "Preemergence herbicidal rating ECHCG", "setting": "[18]; rate 0.125 kg/ha", "result": 4.0},
      {"measurement": "Preemergence herbicidal rating ECHCG", "setting": "[18]; rate 0.25 kg/ha", "result": 7.0},
      {"measurement": "Preemergence herbicidal rating GLXMA", "setting": "[19]; rate 0.125 kg/ha", "result": 3.0},
      {"measurement": "Preemergence herbicidal rating GLXMA", "setting": "[19]; rate 0.25 kg/ha", "result": 5.0},
      {"measurement": "Preemergence herbicidal rating IPOHE", "setting": "[20]; rate 0.125 kg/ha", "result": 9.0},
      {"measurement": "Preemergence herbicidal rating IPOHE", "setting": "[20]; rate 0.25 kg/ha", "result": 9.0},
      {"measurement": "Preemergence herbicidal rating SETVI", "setting": "[21]; rate 0.125 kg/ha", "result": 5.0},
      {"measurement": "Preemergence herbicidal rating SETVI", "setting": "[21]; rate 0.25 kg/ha", "result": 7.0},
      {"measurement": "Preemergence herbicidal rating TRZAW", "setting": "[22]; rate 0.125 kg/ha", "result": 1.0},
      {"measurement": "Preemergence herbicidal rating TRZAW", "setting": "[22]; rate 0.25 kg/ha", "result": 1.0},
      {"measurement": "Preemergence herbicidal rating XANST", "setting": "[23]; rate 0.125 kg/ha", "result": 9.0},
      {"measurement": "Preemergence herbicidal rating XANST", "setting": "[23]; rate 0.25 kg/ha", "result": 9.0},
      {"measurement": "Preemergence herbicidal rating ZEAMX", "setting": "[24]; rate 0.125 kg/ha", "result": 0.0},
      {"measurement": "Preemergence herbicidal rating ZEAMX", "setting": "[24]; rate 0.25 kg/ha", "result": 1.0}
    ]}
  ]
}
